Test results: patent publication US20190375708A1 (VenatoRx Pharmaceuticals, Inc., priority 2018, published 2019)

How the values were obtained:
[1] = In vitro cytotoxicity assay (MTT cell viability) in HepG2 cells; type: cell-based, human; conditions: human
Procedure, shortened: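 HepG2 seeded overnight, then 7-day compound exposure (30 μM–1.0 nM, half-log steps), 37 °C. MTT 3-4 h, DMSO solubilization, A492. % of vehicle → CC50, 4-PL fit.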

[2] = tested on: HBV replication in HepAD38 cells; assay: Anti-HBV replication assay in HepAD38 cells (QPCR of extracellular HBV DNA); type: cell-based, HBV (genotype D, serotype ayw); conditions: Hepatitis B virus, 168 h, 7 days incubation, extracellular HBV DNA by QPCR, read-out: Anti-HBV EC50
Procedure, shortened: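 Compounds (1 log10 serial dilutions, […]) were left 7 days on tetracycline-free HepAD38 cultures, a HepG2 line with tet-controlled HBV genotype D. EC50 came from 4-parameter regression of percent inhibition versus vehicle, using supernatant HBV DNA copies/mL measured by QPCR.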

| Structure (SMILES) | CC50 at 7 days [1] | EC50 [2] |
| --- | --- | --- |
| Cc1cc(NC(=O)c2c(C)c(C(=O)C(=O)NC3(C(F)(F)F)CC3)n(C)c2C)cnc1F [Example 234, N-(6-fluoro-5-methylpyridin-3-yl)-1,2,4-trimethyl-5-(2-oxo-2-((1-(trifluoromethyl)cyclopropyl)amino)acetyl)-1H-pyrrole-3-carboxamide] | > 30000 nM | < 50 nM |
| Cc1noc([C@@H](C)NC(=O)C(=O)c2c(C)c(C(=O)Nc3cnc(F)c(C)c3)c3n2CCCC3)n1 [Example 472, (R)-N-(6-fluoro-5-methylpyridin-3-yl)-2-methyl-3-(2-((1-(3-methyl-1,2,4-oxadiazol-5-yl)ethyl)amino)-2-oxoacetyl)-5,6,7,8-tetrahydroindolizine-1-carboxamide] | > 30000 nM | > 1000 nM |
| Cc1cc(NC(=O)c2c(C)c(C(=O)C(=O)NC34CC5CC(CC(O)(C5)C3)C4)n(C)c2C)cnc1F [Example 114, N-(6-fluoro-5-methylpyridin-3-yl)-5-(2-(((1r,3s,5R,7S)-3-hydroxyadamantan-1-yl)amino)-2-oxoacetyl)-1,2,4-trimethyl-1H-pyrrole-3-carboxamide] | > 30000 nM | < 50 nM |
| Cc1c(C(=O)Nc2ccnc(F)c2)c(C)n(C)c1C(=O)C(=O)NC12CC3CC(CC(O)(C3)C1)C2 [Example 188, N-(2-fluoropyridin-4-yl)-5-(2-(((1r,3s,5R,7S)-3-hydroxyadamantan-1-yl)amino)-2-oxoacetyl)-1,2,4-trimethyl-1H-pyrrole-3-carboxamide] | > 30000 nM | 50 to 499 nM |
| CCOC(=O)[C@H](CO)NC(=O)C(=O)c1c(C)c(C(=O)Nc2ccc(F)c(C)c2)c(C)n1C [Example 25, ethyl (2-(4-((4-fluoro-3-methylphenyl)carbamoyl)-1,3,5-trimethyl-1H-pyrrol-2-yl)-2-oxoacetyl)-L-serinate] | > 30000 nM | 50 to 499 nM |
| Cc1cc(NC(=O)c2c(C)c(C(=O)C(=O)N[C@H](C(N)=O)C(C)C)n(C)c2C)ccc1F [Example 107, (S)-5-(2-((1-amino-3-methyl-1-oxobutan-2-yl)amino)-2-oxoacetyl)-N-(4-fluoro-3-methylphenyl)-1,2,4-trimethyl-1H-pyrrole-3-carboxamide] | > 30000 nM | < 50 nM |
| Cc1cc(NC(=O)c2c(C)c(C(=O)C(=O)NC3(C)CCN(c4nccs4)CC3)n(C)c2C)ccc1F [Example 699, N-(4-fluoro-3-methylphenyl)-1,2,4-trimethyl-5-(2-((4-mmethyl-1-(thiazol-2-yl)piperidin-4-yl)amino)-2-oxoacetyl)-1H-pyrrole-3-carboxamide] | 5000 to 30000 nM | < 50 nM |
| Cc1c(C(=O)Nc2ccc(F)c(Cl)c2)c2n(c1C(=O)C(=O)NCc1cnc(N)s1)CCCC2 [Example 448, 3-(2-(((2-aminothiazol-5-yl)methyl)amino)-2-oxoacetyl)-N-(3-chloro-4-fluorophenyl)-2-methyl-5,6,7,8-tetrahydroindolizine-1-carboxamide] | 5000 to 30000 nM | < 50 nM |
| Cc1cc(NC(=O)c2c(C)c(C(=O)C(=O)N[C@H](C)C(F)(F)F)n(C)c2C)ccc1F [Example 289, (R)-N-(4-fluoro-3-methylphenyl)-1,2,4-trimethyl-5-(2-oxo-2-((1,1,1-trifluoropropan-2-yl)amino)acetyl)-1H-pyrrole-3-carboxamide] | 5000 to 30000 nM | < 50 nM |
| Cc1cc(NC(=O)c2c(C)c(C(=O)C(=O)NC(C)(C)CO)n(C)c2C)ccc1F [Example 8, N-(4-fluoro-3-methylphenyl)-5-(2-((1-hydroxy-2-methylpropan-2-yl)amino)-2-oxoacetyl)-1,2,4-trimethyl-1H-pyrrole-3-carboxamide] | > 30000 nM | < 50 nM |
| Cc1cc(NC(=O)c2c(C)c(C(=O)C(=O)N[C@H]3CC[C@@](C)(O)CC3)n(C)c2C)ccc1F [Example 214, N-(4-fluoro-3-methylphenyl)-5-(2-(((1s,4s)-4-hydroxy-4-methylcyclohexyl)amino)-2-oxoacetyl)-1,2,4-trimethyl-1H-pyrrole-3-carboxamide] | > 30000 nM | < 50 nM |
| Cc1cc(NC(=O)c2c(C)c(C(=O)C(=O)N[C@H]3CC[C@](C)(O)CC3)n3c2CCCC3)ccc1F [Example 740, N-(4-fluoro-3-methylphenyl)-3-(2-(((1r,4r)-4-hydroxy-4-methylcyclohexyl)amino)-2-oxoacetyl)-2-methyl-5,6,7,8-tetrahydroindolizine-1-carboxamide] | > 30000 nM | < 50 nM |
| COC(=O)[C@H](NC(=O)C(=O)c1c(C)c(C(=O)Nc2ccc(F)c(C)c2)c(C)n1C)[C@@H](C)O [Example 46, methyl (2-(4-((4-fluoro-3-methylphenyl)carbamoyl)-1,3,5-trimethyl-1H-pyrrol-2-yl)-2-oxoacetyl)-D-allothreoninate] | > 30000 nM | < 50 nM |
| Cc1c(C(=O)Nc2ccc(F)c(F)c2)c(C)n(C)c1C(=O)C(=O)Nc1ccc(F)nc1 [Example 297, N-(3,4-difluorophenyl)-5-(2-((6-fluoropyridin-3-yl)amino)-2-oxoacetyl)-1,2,4-trimethyl-1H-pyrrole-3-carboxamide] | 5000 to 30000 nM | < 50 nM |
| O=C(NC1(CO)CC1)C(=O)c1c(Cl)c(C(=O)Nc2ccc(F)c(Cl)c2)c2n1CCC2 [Example 566, 6-chloro-N-(3-chloro-4-fluorophenyl)-5-(2-((1-(hydroxymethyl)cyclopropyl)amino)-2-oxoacetyl)-2,3-dihydro-1H-pyrrolizine-7-carboxamide] | 5000 to 30000 nM | < 50 nM |
| Cc1cc(NC(=O)c2c(C)c(C(=O)C(=O)NCCN3C(=O)CSC3=O)n(C)c2C)ccc1F [Example 649, 5-(2-((2-(2,4-dioxothiazolidin-3-yl)ethyl)amino)-2-oxoacetyl)-N-(4-fluoro-3-methylphenyl)-1,2,4-trimethyl-1H-pyrrole-3-carboxamide] | > 30000 nM | < 50 nM |
| Cc1cc(NC(=O)c2c(C)c(C(=O)C(=O)NC3(C(N)=O)C4CC5CC(C4)CC3C5)n(C)c2C)ccc1F (stereo not shown) [Example 43, 5-(2-(((1r,3r,5r,7r)-2-carbamoyladamantan-2-yl)amino)-2-oxoacetyl)-N-(4-fluoro-3-methylphenyl)-1,2,4-trimethyl-1H-pyrrole-3-carboxamide] | 500 to 4990 nM | < 50 nM |
| Cc1cc(NC(=O)c2c(C)c(C(=O)C(=O)NC[C@H](C)O)n(C)c2C)ccc1F [Example 218, (S)-N-(4-fluoro-3-methylphenyl)-5-(2-((2-hydroxypropyl)amino)-2-oxoacetyl)-1,2,4-trimethyl-1H-pyrrole-3-carboxamide] | 5000 to 30000 nM | < 50 nM |
| Cc1cc(NC(=O)c2c(C)c(C(=O)C(=O)NC3C4CC5CC(C4)CC3C5)n(C)c2C)ccc1F (stereo not shown) [Example 17, 5-(2-(((1r,3r)-adamantan-2-yl)amino)-2-oxoacetyl)-N-(4-fluoro-3-methylphenyl)-1,2,4-trimethyl-1H-pyrrole-3-carboxamide] | 500 to 4990 nM | < 50 nM |
| CC(C)(C)NC(=O)C(=O)c1cc(C(=O)Nc2cc(F)c(F)c(F)c2)c2n1CCCC2 [Example 396, 3-(2-(tert-butylamino)-2-oxoacetyl)-N-(3,4,5-trifluorophenyl)-5,6,7,8-tetrahydroindolizine-1-carboxamide] | 5000 to 30000 nM | 50 to 499 nM |
| COC(=O)[C@H](NC(=O)C(=O)c1c(C)c(C(=O)Nc2ccc(F)c(C)c2)c(C)n1C)C(C)(C)C [Example 24, methyl (R)-2-(2-(4-((4-fluoro-3-methylphenyl)carbamoyl)-1,3,5-trimethyl-1H-pyrrol-2-yl)-2-oxoacetamido)-3,3-dimethylbutanoate] | > 30000 nM | < 50 nM |
| Cc1c(C(=O)Nc2ccc(F)c(F)c2)c2n(c1C(=O)C(=O)NCCN)CCCC2 [Example 741, 3-(2-((2-aminoethyl)amino)-2-oxoacetyl)-N-(3,4-difluorophenyl)-2-methyl-5,6,7,8-tetrahydroindolizine-1-carboxamide] | > 30000 nM | 50 to 499 nM |
| Cc1cc(Cl)cc(NC(=O)c2c(C)c(C(=O)C(=O)N[C@H]3CNC(=O)C3)n(C)c2C)c1 [Example 684, (R)-N-(3-chloro-5-methylphenyl)-1,2,4-trimethyl-5-(2-oxo-2-((5-oxopyrrolidin-3-yl)amino)acetyl)-1H-pyrrole-3-carboxamide] | > 30000 nM | < 50 nM |
| Cc1cc(NC(=O)c2c(C)c(C(=O)C(=O)N[C@@H](C(N)=O)[C@H](C)O)n(C)c2C)ccc1F [Example 44, 5-(2-(((2R,3S)-1-amino-3-hydroxy-1-oxobutan-2-yl)amino)-2-oxoacetyl)-N-(4-fluoro-3-methylphenyl)-1,2,4-trimethyl-1H-pyrrole-3-carboxamide] | > 30000 nM | < 50 nM |
| Cc1cc(NC(=O)c2c(C)c(C(=O)C(=O)NC3(C(=O)N[C@H](C)C(F)(F)F)CCOCC3)n(C)c2C)ccc1F [Example 605, (R)-N-(4-fluoro-3-methylphenyl)-1,2,4-trimethyl-5-(2-oxo-2-((4-((1,1,1-trifluoropropan-2-yl)carbamoyl)tetrahydro-2H-pyran-4-yl)amino)acetyl)-1H-pyrrole-3-carboxamide] | > 30000 nM | < 50 nM |
| O=C(N[C@H]1C[C@H](O)C1)C(=O)c1c(Cl)c(C(=O)Nc2ccc(F)c(F)c2)c2n1CCCC2 [Example 533, 2-chloro-N-(3,4-difluorophenyl)-3-(2-(((1r,3r)-3-hydroxycyclobutyl)amino)-2-oxoacetyl)-5,6,7,8-tetrahydroindolizine-1-carboxamide] | > 30000 nM | 500 to 1000 nM |
